# From PubChem BioAssay AID2060485 (Molecular Pharmacology Branch, DTP, NCI, 2025)
# Test system: A375 multi-cell spheroids with HUVEC/MSC, viability
# Assay: Anticancer human tumor A375 cell line growth inhibition [GQUAD];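 further: spheroids exposed to compounds for seven days before readout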
# Conditions: for IC50: curve of first compound; for viability, T/C: stronger effect = lower value
# How it was run: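 Viability of tumor cells grown as complex spheroids with endothelial and stromal cells, exposed to drug combinations. Top concentration at or near clinical Cmax (else 10 microM), diluted in half-log increments.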
# [1] = second compound 0.0316 µM, first compound 0.0316 µM
# [2] = second compound 0.0316 µM, first compound 0.1 µM
# [3] = second compound 0.0316 µM, first compound 0.316 µM
# [4] = second compound 0.0316 µM, first compound 1 µM
# [5] = second compound 0.0316 µM, first compound 3.16 µM
# [6] = second compound 0.0316 µM, first compound 10 µM
# [7] = second compound 0.1 µM, first compound 0.0316 µM
# [8] = second compound 0.1 µM, first compound 0.1 µM
# [9] = second compound 0.1 µM, first compound 0.316 µM
# [10] = second compound 0.1 µM, first compound 1 µM
# [11] = second compound 0.1 µM, first compound 3.16 µM
# [12] = second compound 0.1 µM, first compound 10 µM
# [13] = second compound 0.316 µM, first compound 0.0316 µM
# [14] = second compound 0.316 µM, first compound 0.1 µM
# [15] = second compound 0.316 µM, first compound 0.316 µM
# [16] = second compound 0.316 µM, first compound 1 µM
# [17] = second compound 0.316 µM, first compound 3.16 µM
# [18] = second compound 0.316 µM, first compound 10 µM
# [19] = second compound 1 µM, first compound 0.0316 µM
# [20] = second compound 1 µM, first compound 0.1 µM
# [21] = second compound 1 µM, first compound 0.316 µM
# [22] = second compound 1 µM, first compound 1 µM
# [23] = second compound 1 µM, first compound 3.16 µM
# [24] = second compound 1 µM, first compound 10 µM
# [25] = second compound 3.16 µM, first compound 0.0316 µM
# [26] = second compound 3.16 µM, first compound 0.1 µM
# [27] = second compound 3.16 µM, first compound 0.316 µM
# [28] = second compound 3.16 µM, first compound 1 µM
# [29] = second compound 3.16 µM, first compound 3.16 µM
# [30] = second compound 3.16 µM, first compound 10 µM
# [31] = second compound 10 µM, first compound 0.0316 µM
# [32] = second compound 10 µM, first compound 0.1 µM
# [33] = second compound 10 µM, first compound 0.316 µM
# [34] = second compound 10 µM, first compound 1 µM
# [35] = second compound 10 µM, first compound 3.16 µM
# [36] = second compound 10 µM, first compound 10 µM
smiles,measurement,setting,value
C=CCn1c(=O)c2cnc(Nc3ccc(N4CCN(C)CC4)cc3)nc2n1-c1cccc(C(C)(C)O)n1 + CN(C)c1ccc(Nc2c3ccc(NC(=O)CCN4CCCC4)cc3nc3cc(NC(=O)CCN4CCCC4)ccc23)cc1,IC50,second compound 0.0316 µM,1160 nM
same,IC50,second compound 0.1 µM,1230 nM
same,IC50,second compound 0.316 µM,1310 nM
same,IC50,second compound 1 µM,1380 nM
same,IC50,second compound 3.16 µM,1440 nM
same,IC50,second compound 10 µM,1400 nM
same,"viability, T/C",[1],99.7%
same,"viability, T/C",[2],105%
same,"viability, T/C",[3],96.4%
same,"viability, T/C",[4],55.9%
same,"viability, T/C",[5],12.3%
same,"viability, T/C",[6],7.71%
same,"viability, T/C",[7],98.4%
same,"viability, T/C",[8],100%
same,"viability, T/C",[9],104%
same,"viability, T/C",[10],58%
same,"viability, T/C",[11],15.1%
same,"viability, T/C",[12],7.18%
same,"viability, T/C",[13],106%
same,"viability, T/C",[14],98.7%
same,"viability, T/C",[15],99.9%
same,"viability, T/C",[16],60.7%
same,"viability, T/C",[17],14.2%
same,"viability, T/C",[18],6.94%
same,"viability, T/C",[19],102%
same,"viability, T/C",[20],102%
same,"viability, T/C",[21],107%
same,"viability, T/C",[22],63.8%
same,"viability, T/C",[23],15.3%
same,"viability, T/C",[24],6.9%
same,"viability, T/C",[25],108%
same,"viability, T/C",[26],96.1%
same,"viability, T/C",[27],106%
same,"viability, T/C",[28],66%
same,"viability, T/C",[29],15.6%
same,"viability, T/C",[30],8.34%
same,"viability, T/C",[31],103%
same,"viability, T/C",[32],93.3%
same,"viability, T/C",[33],105%
same,"viability, T/C",[34],63.5%
same,"viability, T/C",[35],17.4%
same,"viability, T/C",[36],8.32%
CCCS(=O)(=O)Nc1ccc(F)c(C(=O)c2c[nH]c3ncc(-c4ccc(Cl)cc4)cc23)c1F + CN(C)c1ccc(Nc2c3ccc(NC(=O)CCN4CCCC4)cc3nc3cc(NC(=O)CCN4CCCC4)ccc23)cc1,IC50,second compound 0.0316 µM,< 31.6 nM
same,IC50,second compound 0.1 µM,< 31.6 nM
same,IC50,second compound 0.316 µM,< 31.6 nM
same,IC50,second compound 1 µM,< 31.6 nM
same,IC50,second compound 3.16 µM,< 31.6 nM
same,IC50,second compound 10 µM,< 31.6 nM
same,"viability, T/C",[1],40.3%
same,"viability, T/C",[2],14.1%
same,"viability, T/C",[3],8.13%
same,"viability, T/C",[4],6.52%
same,"viability, T/C",[5],4.92%
same,"viability, T/C",[6],5.69%
same,"viability, T/C",[7],45%
same,"viability, T/C",[8],14.1%
same,"viability, T/C",[9],7.72%
same,"viability, T/C",[10],6.32%
same,"viability, T/C",[11],5.28%
same,"viability, T/C",[12],5.54%
same,"viability, T/C",[13],39.4%
same,"viability, T/C",[14],14.7%
same,"viability, T/C",[15],8.27%
same,"viability, T/C",[16],6.77%
same,"viability, T/C",[17],4.48%
same,"viability, T/C",[18],4.46%
same,"viability, T/C",[19],34.9%
same,"viability, T/C",[20],15%
same,"viability, T/C",[21],7.95%
same,"viability, T/C",[22],6.06%
same,"viability, T/C",[23],4.78%
same,"viability, T/C",[24],2.9%
same,"viability, T/C",[25],36.5%
same,"viability, T/C",[26],14.8%
same,"viability, T/C",[27],6.95%
same,"viability, T/C",[28],5.84%
same,"viability, T/C",[29],4.55%
same,"viability, T/C",[30],0.61%
same,"viability, T/C",[31],36.9%
same,"viability, T/C",[32],12.4%
same,"viability, T/C",[33],7%
same,"viability, T/C",[34],5.45%
same,"viability, T/C",[35],4.34%
same,"viability, T/C",[36],0.17%
